Measured values published in patent publication US20190365681A1, “TREATMENT OF CANCER WITH COMBINATIONS OF RXR AGONISTS AND THYROID HORMONES” (Io Therapeutics, Inc., priority 2015, published 2019).
pIC50: −log10 of the molar value. Entries after “also recorded” stand apart in the source; their conditions may differ. Read-outs that look alike come from different tables or passages of the source.

Assays:
[1] = test system: refractory malignancies (progressive, solid tumors); assay: Phase I/II study of IRX4204 in refractory malignancies; assay type: in vivo, Humans
Source text: Data was collected for 18 patients with progressive, solid tumors.

[2] = test system: H-82; assay: In vitro growth inhibition, [3H] thymidine incorporation; assay type: cell-based
Description: (§1) The inhibition of growth was tested in a variety of cancer cell lines.
(§2) All cell lines were obtained from American Type Culture Collection (ATCC, Manassas, Va.) and culture media and supplements were supplied by ATCC and Invitrogen (Carlsbad, Calif.). The ATP assay was performed using […]-GLO Luminescent Cell Viability Assay Kit from Promega (Madison, Wis.) which allows ATP to be roughly quantified based on the […] emitted by the cells. Luminescence was recorded using VICTOR-22 1420 (Perkin Elmer, Waltham, Mass.).
(§3) The thymidine incorporation assay allows for specific detection of [^3H]-labeled thymidine (Perkin-Elmer) incorporated into newly synthesized DNA. Labeled cells were collected and their DNA was harvested on to a fiberglass filter using MLR24 Cell Harvester (Brandel, Geithersburg, Md.). The amount of incorporated [^3H] thymidine was determined by scintillation counting using Trilux-1450 Microbeta Counter (Perkin-Elmer).
(§4) Efficacy is the maximal inhibition of cell growth at the maximal concentration used in the studies. ND means the results were not determined.

[3] = test system: HL-60; assay: as above; assay type: cell-based
Description: as §1, §2, §3, §4

[4] = test system: LXRβ/RXR; assay: Permissive heterodimer transactivation assay, CV-1 cells, 3x(PLTP/LXRE)-tk-Luc; assay type: cell-based; conditions: 20 hr; relative to T0901317
Source text: (§5) For PPARγ: CV-1 cells were transfected with 3×(rAOX/DR1)-tk-Luc reporter gene and an expression vector for PPARγ. For FXR:CV-1 cells were transfected with 3×(IBABP/IRI)-tk-Luc reporter gene and vectors for FXR and RXRα. For LXR:CV-1 cells were transfected with 3×(PLTP/LXRE)-tk-Luc reporter gene with vectors for LXRα or LXRβ. For Nurr1: COS7 cells were transfected with 3×NBRE-tk-luc reporter gene and full length Nurr-1 with or without full-length RXRα plasmid. […] Luciferase data were normalized to co-transfected β-gal activity. Luciferase activity was expressed as percent of maximal activity obtained using specific agonists. Rosiglitazone (PPARγ), GW4064 (FXR), T0901317 (LXR).

[5] = test system: LXRα/RXR; assay: as above; assay type: cell-based; conditions: 20 hr; relative to T0901317
Source text: as §5

[6] = biological target: Nurr1/RXR (Homo sapiens, UniProt P19793); assay: Permissive heterodimer transactivation assay, COS7 cells, 3xNBRE-tk-luc; assay type: cell-based; conditions: Nurr-1 with RXRα
Source text: as §5

[7] = biological target: T1, FXR/RXR (Homo sapiens, UniProt P19793); assay: Permissive heterodimer transactivation assay, CV-1 cells, 3x(IBABP/IRI)-tk-Luc; assay type: cell-based; conditions: 20 hr; relative to GW4064
T1 construct: expressed in transfected cells; host or cells: CV-1
Source text: as §5

[8] = biological target: T2, RXRγ (Homo sapiens, UniProt P48443); assay: RXR homodimer transactivation assay (rCRBPII/RXRE-tk-Luc reporter) in CV-1 cells; assay type: cell-based
T2 construct: an expression construct including a full length RXRα, RXRβ, or RXRγ; expressed in transfected cells; host or cells: CV-1
Description: To determine whether a RXR agonist can mediate its effects via RXRα receptor homodimers, RXRβ receptor homodimers, RXRγ receptor homodimers, or any combination thereof, or the corresponding RAR/RXR heterodimers, receptor-mediated transactivation assays were performed. For transactivation assays assessing RXR homodimer signaling, CV-1 cells were transfected with 1) an expression construct including a full length RXRα, RXRβ, or RXRγ; and 2) a rCRBPII/RXRE-tk-Luc reporter construct that included RXR homodimer-specific RXRE/DR1 responsive element linked to a luciferase gene. For transactivation assays assessing RAR/RXR heterodimer signaling, CV-1 cells were transfected with 1) an expression construct comprising a fusion protein including an estrogen receptor (ER) DNA binding domain linked to the ligand binding domain of RARα, RARβ, or RARγ and 2) a ERE-tk-Luc reporter construct that included an estrogen receptor responsive element linked to a luciferase gene. The ER-RAR fusion proteins provided an accurate readout of only the transfected ER-RAR. […] Data are mean values±SE from five independent experiments.

[9] = biological target: RXRα (Homo sapiens, UniProt P19793); conditions: CV-1 cells, 20 hours, luciferase
Description: To determine whether a RXR agonist can mediate its effects via RXRα receptor homodimers, RXRβ receptor homodimers, RXRγ receptor homodimers, or any combination thereof, or the corresponding RAR/RXR heterodimers, receptor-mediated transactivation assays were performed. For transactivation assays assessing RXR homodimer signaling, CV-1 cells were transfected with 1) an expression construct including a full length RXRα, RXRβ, or RXRγ; and 2) a rCRBPII/RXRE-tk-Luc reporter construct that included RXR homodimer-specific RXRE/DR1 responsive element linked to a luciferase gene. For transactivation assays assessing RAR/RXR heterodimer signaling, CV-1 cells were transfected with 1) an expression construct comprising a fusion protein including an estrogen receptor (ER) DNA binding domain linked to the ligand binding domain of RARα, RARβ, or RARγ and 2) a ERE-tk-Luc reporter construct that included an estrogen receptor responsive element linked to a luciferase gene. […] Data are mean values±SE from five independent experiments.

[10] = test system: ME-180; assay: In vitro growth inhibition, ATP assay ([…]-GLO); assay type: cell-based
Description: as §1, §2, §4

[11] = test system: U937; assay: In vitro growth inhibition, ATP assay ([…]-GLO); assay type: cell-based
Description: as §1, §2, §4

[12] = test system: T47D; assay: In vitro growth inhibition, ATP assay ([…]-GLO); assay type: cell-based
Description: as §1, §2, §4

[13] = test system: SK-BR-3; assay: In vitro growth inhibition, ATP assay ([…]-GLO); assay type: cell-based
Description: as §1, §2, §4

[14] = test system: A-427; assay: In vitro growth inhibition, ATP assay ([…]-GLO); assay type: cell-based
Description: as §1, §2, §4

[15] = test system: SW403; assay: In vitro growth inhibition, ATP assay ([…]-GLO); assay type: cell-based
Description: as §1, §2, §4

[16] = test system: MCF-7; assay: In vitro growth inhibition, ATP assay ([…]-GLO); assay type: cell-based
Description: as §1, §2, §4

[17] = test system: HT-3; assay: In vitro growth inhibition, ATP assay ([…]-GLO); assay type: cell-based
Description: as §1, §2, §4

[18] = test system: SiHa; assay: In vitro growth inhibition, ATP assay ([…]-GLO); assay type: cell-based
Description: as §1, §2, §4

[19] = test system: HuT 78; assay: In vitro growth inhibition, ATP assay ([…]-GLO); assay type: cell-based
Description: as §1, §2, §4

[20] = test system: SW48; assay: In vitro growth inhibition, cell counting; assay type: cell-based; conditions: SW48, Colon, maximal inhibition at 1 μM
[21] = test system: T47D; assay: In vitro growth inhibition, soft-agar; assay type: cell-based
Description: as §1, §2
(§6) The soft-agar coupled thymidine incorporation assay is used to determine the ability of cells to form colonies through invasion into agar matrix. A bottom feeder layer of cells was composed of 0.6% NUSIEVE GTG agarose (Cambrex, East Rutherford, N.J.), D-MEM with low glucose, 2 mM L-glutamine, and 15% charcoal/dextran-treated FBS. Test cells were seeded in the top soft-agar layer containing 0.3% NUSIEVE GTG agarose, D-MEM (low glucose), 2 mM L-glutamine, and 15% charcoal/dextran-treated FBS at a density of 10,000-20,000 cells per well. Test cells were labeled with [^3H] thymidine at 50 nM. Labeled cells were collected and counted as described above.
(§7) For the soft-agar colony formation assay, cells were cultured in 6-well plates containing two agar layers with growth medium. The bottom feeder layer contained 0.5% DIFCO Noble Agar (Becton Dickinson & Co., East Rutherford, N.J.), D-MEM with low glucose and 2 mM L-glutamine, and 15% charcoal/dextran-treated FBS. Test cells were seeded in the top soft-agar layer containing 0.3% agarose, D-MEM (low glucose), 2 mM L-glutamine, and 15% charcoal/dextran-treated FBS at a density of 10,000 cells per well. After treatment with drugs, cell colonies were counted under a light microscope.
as §4

[22] = test system: H446; assay: In vitro growth inhibition, soft-agar; assay type: cell-based
Description: as §1, §2, §6, §7, §4

[23] = cited from earlier work
[24] = Homo sapiens, Breast ER-positive

T1 sequence (Q96RI1 whole entry partner): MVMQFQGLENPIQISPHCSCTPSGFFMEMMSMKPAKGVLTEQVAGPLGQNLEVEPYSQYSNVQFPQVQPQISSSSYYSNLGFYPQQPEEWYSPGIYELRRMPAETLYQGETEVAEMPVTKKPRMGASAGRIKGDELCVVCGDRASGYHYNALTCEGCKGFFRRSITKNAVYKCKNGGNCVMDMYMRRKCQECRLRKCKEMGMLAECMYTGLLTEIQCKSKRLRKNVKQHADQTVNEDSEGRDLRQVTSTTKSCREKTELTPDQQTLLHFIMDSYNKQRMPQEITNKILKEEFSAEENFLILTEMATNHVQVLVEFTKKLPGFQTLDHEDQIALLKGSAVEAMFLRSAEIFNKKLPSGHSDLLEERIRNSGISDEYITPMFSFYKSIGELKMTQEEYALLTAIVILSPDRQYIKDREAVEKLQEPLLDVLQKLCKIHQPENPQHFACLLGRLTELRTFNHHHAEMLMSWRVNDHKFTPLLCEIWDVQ
T1 sequence (P19793 whole entry): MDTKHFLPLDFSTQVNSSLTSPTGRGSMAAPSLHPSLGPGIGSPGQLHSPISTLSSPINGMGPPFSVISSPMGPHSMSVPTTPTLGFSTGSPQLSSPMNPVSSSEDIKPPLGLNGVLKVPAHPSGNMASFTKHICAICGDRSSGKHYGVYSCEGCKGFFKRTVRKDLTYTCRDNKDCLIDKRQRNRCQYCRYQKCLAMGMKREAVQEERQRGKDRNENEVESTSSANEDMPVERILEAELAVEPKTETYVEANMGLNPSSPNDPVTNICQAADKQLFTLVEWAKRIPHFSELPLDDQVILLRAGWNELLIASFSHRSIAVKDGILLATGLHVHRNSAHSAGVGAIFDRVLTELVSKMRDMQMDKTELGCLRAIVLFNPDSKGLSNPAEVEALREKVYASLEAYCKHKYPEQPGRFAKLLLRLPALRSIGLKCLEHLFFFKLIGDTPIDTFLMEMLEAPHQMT
Sequence of Nurr1/RXR (P43354 whole entry partner): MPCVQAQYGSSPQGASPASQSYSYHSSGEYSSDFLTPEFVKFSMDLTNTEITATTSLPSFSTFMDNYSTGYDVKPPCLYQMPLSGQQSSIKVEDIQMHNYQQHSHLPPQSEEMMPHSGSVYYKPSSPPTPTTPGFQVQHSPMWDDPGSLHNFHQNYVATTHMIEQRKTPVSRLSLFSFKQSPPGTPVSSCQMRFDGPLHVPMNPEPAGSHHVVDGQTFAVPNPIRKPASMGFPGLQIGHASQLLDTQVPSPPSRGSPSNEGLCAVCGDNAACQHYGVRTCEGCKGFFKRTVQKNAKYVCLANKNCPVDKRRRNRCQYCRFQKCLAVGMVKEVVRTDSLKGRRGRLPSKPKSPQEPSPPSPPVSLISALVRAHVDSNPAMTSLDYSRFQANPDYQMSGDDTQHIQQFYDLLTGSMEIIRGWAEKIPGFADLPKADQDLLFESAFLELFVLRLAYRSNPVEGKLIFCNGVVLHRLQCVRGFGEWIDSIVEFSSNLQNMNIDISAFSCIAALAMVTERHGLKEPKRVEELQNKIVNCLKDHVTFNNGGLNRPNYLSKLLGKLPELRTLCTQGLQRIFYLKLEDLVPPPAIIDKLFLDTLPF
Sequence of Nurr1/RXR (P19793 whole entry): as the sequence (P19793 whole entry) above
T2 sequence (P48443 whole entry): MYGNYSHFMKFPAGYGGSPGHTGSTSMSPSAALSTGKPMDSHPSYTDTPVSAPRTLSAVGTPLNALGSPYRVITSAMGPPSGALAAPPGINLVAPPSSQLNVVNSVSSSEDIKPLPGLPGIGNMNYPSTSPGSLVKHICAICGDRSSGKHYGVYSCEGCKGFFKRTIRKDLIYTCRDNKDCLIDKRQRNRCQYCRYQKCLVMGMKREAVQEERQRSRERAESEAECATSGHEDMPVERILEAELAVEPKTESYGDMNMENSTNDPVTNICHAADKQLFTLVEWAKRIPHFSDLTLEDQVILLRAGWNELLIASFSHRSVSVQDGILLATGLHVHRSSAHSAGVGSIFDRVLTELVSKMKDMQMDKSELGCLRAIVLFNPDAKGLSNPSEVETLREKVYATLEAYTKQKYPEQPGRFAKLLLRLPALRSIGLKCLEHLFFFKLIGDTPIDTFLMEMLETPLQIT
Sequence of RXRα (P19793 whole entry, the tested form may be a part): as the sequence (P19793 whole entry) above

SMILES: CC(/C=C/[C@@H]1C[C@]1(C)c1ccc2c(c1)C(C)(C)CCC2(C)C)=C\C(=O)O [IRX4204, 3,7-dimethyl-6(S),7(S)-methano,7-[1,1,4,4-tetramethyl-1,2,3,4-tetrahydronaphth-7-yl]2(E),4(E) heptadienoic acid]
- patients who did not exhibit tumor progression for at least four months ([1]; 18 patients with progressive, solid tumors, 9 patients): 50%
- adverse events recorded ([1]; patients, once-daily oral 3, 6, 12, 24 mg/m^2, minimum four weeks): triglyceride elevation and hypothyroidism
- serious adverse events related to IRX4204 ([1]; patients, once-daily oral 3, 6, 12, 24 mg/m^2, minimum four weeks, 18 patients): no serious adverse events considered possibly or probably related to IRX4204
- Efficacy (Conc.) ([2]; H-82, thymidine incorporation, maximal inhibition at 1 μM): 72%
- pIC50 ([2]; Homo sapiens, NCI-H82, H-82, Small Cell Lung Cancer, [H3] Thymidine Incorporation): 8.44
- Efficacy (Conc.) ([3]; HL-60, thymidine incorporation, maximal inhibition at 1 μM): 94%
- pIC50 ([3]; Homo sapiens, HL-60, Leukemia, [H3] Thymidine Incorporation): 7.82
- activation of LXRβ/RXR heterodimer [4]: not to transactivate; also recorded: does not activate
- activation of LXRα/RXR heterodimer [5]: not to transactivate; also recorded: does not activate
- activation of Nurr1/RXR permissive heterodimer [6]: selectively activates
- activation of FXR/RXR heterodimer [7]: not to transactivate; also recorded: does not activate
- Efficacy (% of 1 μM IRX4204) RXRγ [8]: 0.09 ± 0.01 100 % of 1 μM IRX4204
- Efficacy (% of 1 μM IRX4204) RXRα [9]: 100 % of 1 μM IRX4204
- pIC50 ([10]; Homo sapiens, ME-180, Cervical, ATP): 8.15
- Efficacy (Conc.) ([10]; ME-180, ATP, maximal inhibition at 1 μM): 80%
- pIC50 ([11]; Homo sapiens, U-937, U937, Leukemia, ATP): 9.14
- Efficacy (Conc.) ([11]; U937, ATP, maximal inhibition at 1 μM): 94%
- pIC50 [12, 24]: 7.12
- Efficacy (Conc.) ([12]; maximal inhibition at 1 μM): 97%
- pIC50 ([13]; Homo sapiens, SK-BR-3, Breast ER-negative, ATP): 8.52
- Efficacy (Conc.) ([13]; SK-BR-3, ATP, maximal inhibition at 1 μM): 74%
- Efficacy (Conc.) ([14]; A-427, ATP, maximal inhibition at 10 μM): 50%
- pIC50 ([14]; Homo sapiens, A-427, Non-Small Cell Lung Cancer, ATP): 8.11
- pIC50 ([15]; Homo sapiens, SW-403, SW403, Colon, ATP): 9.11
- Efficacy (Conc.) ([15]; SW403, ATP, maximal inhibition at 1 μM): 35%
- pIC50 ([16]; Homo sapiens, MCF7, MCF-7, Breast ER-positive, ATP): 7.28
- Efficacy (Conc.) ([16]; MCF-7, ATP, maximal inhibition at 1 μM): 52%
- Efficacy (Conc.) ([17]; HT-3, ATP, maximal inhibition at 1 μM): 68%
- pIC50 ([17]; Homo sapiens, HT-3, Cervical, ATP): > 6.00
- pIC50 ([18]; Homo sapiens, Cervical): 7.33
- Efficacy (Conc.) ([18]; maximal inhibition at 1 μM): 41%
- pIC50 ([19]; Homo sapiens, HuT78, HuT 78, Cutaneous T-Cell Lymphoma, ATP, 50% of maximal inhibition): 8.80
- Efficacy (Conc.) ([19]; HuT 78, ATP, maximal inhibition at 1 μM): 81%
- Efficacy (Conc.) [20]: 60%
- pIC50 [21, 24]: 7.90
- Efficacy (Conc.) ([21]; maximal inhibition at 10 μM): 97%
- Efficacy (Conc.) ([22]; H446, Soft-Agar, maximal inhibition at 1 μM): 44%
- pIC50 ([22]; Homo sapiens, NCI-H446, H446, Small Cell Lung Cancer, Soft-Agar): 7.77

SMILES: C=C(c1ccc(C(=O)O)cc1)c1cc2c(cc1C)C(C)(C)CCC2(C)C [bexarotene, 4-[1-(3,5,5,8,8-pentamethyl-6,7-dihydronaphthalen-2-yl)ethenyl]benzoic acid]
- Cmax ([23]; dose of 400 mg/m^2/d, read-out: Cmax in the blood (estimated)): ~8 µM
- Cmax ([23]; lower dose 225 mg/m^2/d, read-out: Cmax (estimated)): ~2 µM
